Measurements taken from the NIST ThermoML archive (doi:10.1021/je1008747).
± gives the expanded uncertainty stated by the source.

Settings: Liquid

CCn1cc[n+](C)c1.C[C@H](O)C(=O)[O-] [3-ethyl-1-methylimidazolium (S)-2-hydroxypropanoate]
Settings	mass density [kg/m3]
293.15 K, 101.33 kPa	1149.7 ± 2.8
298.15 K, 101.33 kPa	1146.1 ± 2.8
303.15 K, 101.33 kPa	1142.5 ± 2.8
308.15 K, 101.33 kPa	1139 ± 2.8
312.6 K, 100 kPa	1136 ± 3
312.6 K, 10000 kPa	1140 ± 3
312.6 K, 20000 kPa	1144 ± 3
312.6 K, 30000 kPa	1148 ± 3
312.6 K, 40000 kPa	1151 ± 3
312.6 K, 50000 kPa	1155 ± 3
312.6 K, 60000 kPa	1158 ± 3
312.6 K, 70000 kPa	1162 ± 3
312.6 K, 80000 kPa	1165 ± 3
312.6 K, 90000 kPa	1168 ± 3
312.6 K, 100000 kPa	1172 ± 3
312.6 K, 110000 kPa	1175 ± 4
312.6 K, 120000 kPa	1178 ± 4
312.6 K, 130000 kPa	1181 ± 4
312.6 K, 140000 kPa	1183 ± 4
312.6 K, 150000 kPa	1186 ± 4
312.6 K, 160000 kPa	1189 ± 4
312.6 K, 170000 kPa	1192 ± 4
312.6 K, 180000 kPa	1195 ± 4
312.6 K, 190000 kPa	1197 ± 5
312.6 K, 200000 kPa	1200 ± 5
313.15 K, 101.33 kPa	1135.6 ± 2.8
318.15 K, 101.33 kPa	1132.2 ± 2.8
323.15 K, 101.33 kPa	1128.8 ± 2.7
328.15 K, 101.33 kPa	1125.4 ± 2.7
332.1 K, 10000 kPa	1126 ± 3
332.1 K, 20000 kPa	1131 ± 3
332.1 K, 30000 kPa	1135 ± 3
332.1 K, 40000 kPa	1139 ± 3
332.1 K, 50000 kPa	1142 ± 3
332.1 K, 60000 kPa	1146 ± 3
332.1 K, 70000 kPa	1149 ± 3
332.1 K, 80000 kPa	1153 ± 3
332.1 K, 90000 kPa	1156 ± 3
332.1 K, 100000 kPa	1159 ± 3
332.1 K, 110000 kPa	1163 ± 3
332.1 K, 120000 kPa	1166 ± 4
332.1 K, 130000 kPa	1169 ± 4
332.1 K, 140000 kPa	1172 ± 4
332.1 K, 150000 kPa	1175 ± 4
332.1 K, 160000 kPa	1178 ± 4
332.1 K, 170000 kPa	1180 ± 4
332.1 K, 180000 kPa	1183 ± 4
332.1 K, 190000 kPa	1186 ± 4
332.1 K, 200000 kPa	1189 ± 5
333.15 K, 101.33 kPa	1122.1 ± 2.7
338.15 K, 101.33 kPa	1118.7 ± 2.7
343.15 K, 101.33 kPa	1115.4 ± 2.7
348.15 K, 101.33 kPa	1112.1 ± 2.7
352.1 K, 10000 kPa	1113 ± 3
352.1 K, 20000 kPa	1118 ± 3
352.1 K, 30000 kPa	1122 ± 3
352.1 K, 40000 kPa	1126 ± 3
352.1 K, 50000 kPa	1130 ± 3
352.1 K, 60000 kPa	1134 ± 3
352.1 K, 70000 kPa	1137 ± 3
352.1 K, 80000 kPa	1141 ± 3
352.1 K, 90000 kPa	1144 ± 3
352.1 K, 100000 kPa	1148 ± 3
352.1 K, 110000 kPa	1151 ± 3
352.1 K, 120000 kPa	1154 ± 3
352.1 K, 130000 kPa	1157 ± 4
352.1 K, 140000 kPa	1160 ± 4
352.1 K, 150000 kPa	1164 ± 4
352.1 K, 160000 kPa	1166 ± 4
352.1 K, 170000 kPa	1169 ± 4
352.1 K, 180000 kPa	1172 ± 4
352.1 K, 190000 kPa	1175 ± 4
352.1 K, 200000 kPa	1178 ± 4
353.15 K, 101.33 kPa	1108.8 ± 2.7
372.2 K, 10000 kPa	1101 ± 3
372.2 K, 20000 kPa	1105 ± 3
372.2 K, 30000 kPa	1110 ± 3
372.2 K, 40000 kPa	1114 ± 3
372.2 K, 50000 kPa	1118 ± 3
372.2 K, 60000 kPa	1122 ± 3
372.2 K, 70000 kPa	1126 ± 3
372.2 K, 80000 kPa	1129 ± 3
372.2 K, 90000 kPa	1133 ± 3
372.2 K, 100000 kPa	1137 ± 3
372.2 K, 110000 kPa	1140 ± 3
372.2 K, 120000 kPa	1143 ± 3
372.2 K, 130000 kPa	1147 ± 3
372.2 K, 140000 kPa	1150 ± 4
372.2 K, 150000 kPa	1153 ± 4
372.2 K, 160000 kPa	1156 ± 4
372.2 K, 170000 kPa	1159 ± 4
372.2 K, 180000 kPa	1162 ± 4
372.2 K, 190000 kPa	1165 ± 4
372.2 K, 200000 kPa	1168 ± 4
392.4 K, 10000 kPa	1088 ± 2
392.4 K, 20000 kPa	1093 ± 3
392.4 K, 30000 kPa	1098 ± 3
392.4 K, 40000 kPa	1102 ± 3
392.4 K, 50000 kPa	1106 ± 3
392.4 K, 60000 kPa	1110 ± 3
392.4 K, 70000 kPa	1114 ± 3
392.4 K, 80000 kPa	1118 ± 3
392.4 K, 90000 kPa	1122 ± 3
392.4 K, 100000 kPa	1126 ± 3
392.4 K, 110000 kPa	1129 ± 3
392.4 K, 120000 kPa	1133 ± 3
392.4 K, 130000 kPa	1136 ± 3
392.4 K, 140000 kPa	1139 ± 3
392.4 K, 150000 kPa	1143 ± 4
392.4 K, 160000 kPa	1146 ± 4
392.4 K, 170000 kPa	1149 ± 4
392.4 K, 180000 kPa	1152 ± 4
392.4 K, 190000 kPa	1155 ± 4
392.4 K, 200000 kPa	1158 ± 4
412.4 K, 10000 kPa	1076 ± 2
412.4 K, 20000 kPa	1081 ± 2
412.4 K, 30000 kPa	1086 ± 3
412.4 K, 40000 kPa	1090 ± 3
412.4 K, 50000 kPa	1095 ± 3
412.4 K, 60000 kPa	1099 ± 3
412.4 K, 70000 kPa	1103 ± 3
412.4 K, 80000 kPa	1107 ± 3
412.4 K, 90000 kPa	1111 ± 3
412.4 K, 100000 kPa	1115 ± 3
412.4 K, 110000 kPa	1119 ± 3
412.4 K, 120000 kPa	1122 ± 3
412.4 K, 130000 kPa	1126 ± 3
412.4 K, 140000 kPa	1129 ± 3
412.4 K, 150000 kPa	1132 ± 3
412.4 K, 160000 kPa	1136 ± 4
412.4 K, 170000 kPa	1139 ± 4
412.4 K, 180000 kPa	1142 ± 4
412.4 K, 190000 kPa	1145 ± 4
412.4 K, 200000 kPa	1148 ± 4
432.2 K, 10000 kPa	1064 ± 2
432.2 K, 20000 kPa	1069 ± 2
432.2 K, 30000 kPa	1074 ± 2
432.2 K, 40000 kPa	1079 ± 3
432.2 K, 50000 kPa	1084 ± 3
432.2 K, 60000 kPa	1088 ± 3
432.2 K, 70000 kPa	1093 ± 3
432.2 K, 80000 kPa	1097 ± 3
432.2 K, 90000 kPa	1101 ± 3
432.2 K, 100000 kPa	1105 ± 3
432.2 K, 110000 kPa	1109 ± 3
432.2 K, 120000 kPa	1112 ± 3
432.2 K, 130000 kPa	1116 ± 3
432.2 K, 140000 kPa	1119 ± 3
432.2 K, 150000 kPa	1123 ± 3
432.2 K, 160000 kPa	1126 ± 3
432.2 K, 170000 kPa	1130 ± 4
432.2 K, 180000 kPa	1133 ± 4
432.2 K, 190000 kPa	1136 ± 4
432.2 K, 200000 kPa	1139 ± 4
